Test results reported in patent US7098219B2, “Inhibitors of cellular efflux pumps of microbes” (Wockhart Limited, priority 2000, dated 2006).

Tested on: Mef Efflux Pump of Streptococcus pneumoniae 3514 and Streptococcus pyogenes 26-00
Test: Two plate diffusion assay for macrolide (Mef) efflux pump inhibitors, azithromycin plate versus control plate
Assay type: cell-based
Conditions: zone of inhibition in antibiotic plate (method: azithromycin 0.5 mcg/ml; footnote: levofloxacin) minus water control plate; strain not given

Going from CC1(C)CN(c2nc3c(cc2F)c(=O)c(C(=O)O)cn3-c2ccc(F)cc2F)CCC1O (centres unmarked) [Example 24 (Mef), 1-(2,4-Difluorophenyl)-6-fluoro-1,4-dihydro-7-(3′,3′-dimethyl-4′-hydroxypiperdin-1-yl)-4-oxo-naphthyridine-3-carboxylic acid] to CCNC1C(C)CN(c2c(F)c(N)c3c(=O)c(C(=O)O)cn(C4CC4)c3c2OC)CC1C (centres unmarked) [Example 35 (Mef), 5-Amino-1-cyclopropyl-6-fluoro-8-methoxy-1,4-dihydro-7-{4′-ethylamino-3′,5′-dimethylpiperidin-1-yl}-4-oxo-quinoline-3-carboxylic acid], the “Difference in Zone diameter Z1 (mm)” value rises from 10 mm to 13 mm.

First: CNC1CCN(c2cc3c(c(C)c2F)c(=O)c(C(=O)O)cn3-c2ccc(F)cc2F)CC1 [Example 19 (Mef), 1-(2′,4′-Difluorophenyl)-6-fluoro-5-methyl-1,4-dihydro-7-(4′-methylaminopiperidin-1′-yl)-4-oxo-quinoline-3-carboxylic acid]
Second: NCC1CN(c2cc3c(cc2F)c(=O)c(C(=O)O)cn3C2CC2)CCC1O (centres unmarked) [Example 31 (Mef), 1-Cyclopropyl-6-fluoro-1,4-dihydro-7-(3′-aminomethyl-4′-hydroxypiperidin 1-yl)-4-oxo-quinoline-3-carboxylic acid]
The “Difference in Zone diameter Z1 (mm)” value of the first is higher: 8 mm for the first, 6 mm for the second.

First: COc1c(N2CCC(NC(=O)[C@H](C)NC(=O)OC(C)(C)C)C(C)(C)C2)c(F)cc2c(=O)c(C(=O)O)cn(C3CC3)c12.Cl (stereo partly drawn) [Example 7 (Mef), 1-Cyclopropyl-6-fluoro-8-methoxy-1,4-dihydro-7-{4′-N-(t-butoxycarbonyl-L-alanyl)-amino-3′,3′-dimethylpiperidin-1-yl}-4-oxo-quinoline-3-carboxylic acid hydrochloride]
Second: CC1CN(c2cc3c(cc2F)c(=O)c(C(=O)O)cn3C2CC2)CCC1N(C)C (centres unmarked) [Example 32 (Mef), 1-Cyclopropyl-6-fluoro-1,4-dihydro-7-(4′-dimethylamino-3′-methylpiperidin-1-yl)-4-oxo-quinoline-3-carboxylic acid]
The “Difference in Zone diameter Z1 (mm)” value of the first is lower: 7 mm for the first, 8 mm for the second.

Going from COc1c(N2CCC(NC(=O)[C@@H](N)C(C)C)C(C)(C)C2)c(F)cc2c(=O)c(C(=O)O)cn(C3CC3)c12.Cl (stereo partly drawn) [Example 10 (Mef), 1-Cyclopropyl-6-fluoro-8-methoxy-1,4-dihydro-7-(3′,3′-dimethyl-4′-L-valinylaminopiperidin-1-yl}-4-oxo-quinoline-3-carboxylic acid hydrochloride] to CCNC1CCN(c2cc3c(cc2F)c(=O)c(C(=O)O)cn3-c2ccc(F)cc2F)CC1 [Example 17 (Mef), 1-(2′,4′-Difluorophenyl)-6-fluoro-1,4-dihydro-7-(4′-ethylaminopiperidin-1′-yl)-4-oxo-quinoline-3-carboxylic acid], the “Difference in Zone diameter Z1 (mm)” value rises from 8 mm to 9 mm.

Going from CCNC1CCN(c2c(F)cc3c(=O)c(C(=O)O)cn(CC)c3c2F)CC1 [Example 12 (Mef), 1-Ethyl-6,8-difluoro-1,4-dihydro-7-(4′-ethylaminouiperidin-1′-yl)-4-oxo-quinoline-3-carboxylic acid] to NC1CCN(c2nc3c(cc2F)c(=O)c(C(=O)O)cn3C2CC2)C1 (centres unmarked) [Example 20 (Mef)], the “Difference in Zone diameter Z1 (mm)” value falls from 18 mm to 10 mm.

CCNC1CCN(c2c(F)c(C)c3c(=O)c(C(=O)O)cn(C4CC4)c3c2F)CC1(C)C (centres unmarked) [Example 28 (Mef), 1-Cyclopropyl-6,8-difluoro-5-methyl-1,4-dihydro-7-(3′,3′-dimethyl-4′-ethylaminopiperidin-1-yl)-4-oxo-quinoline-3-carboxylic acid] and CC1CCc2c(N3CCC(O)C(C)(C)C3)ccc3c(=O)c(C(=O)O)cn1c23 (racemic) [Example 43 (Mef), (RS)-(±)-6,7-dihydro-8-(4′-hydroxy-3′,3′-dimethylpiperidin-1-yl)-5-methyl-1-oxo-1H,5H-benzo[i,j]quinolizine-2-carboxylic acid] are the same in “Difference in Zone diameter Z1 (mm)” value: 10 mm for the first, 10 mm for the second.

Going from COc1c(N2CCC(N)C(C)(C)C2)c(F)cc2c(=O)c(C(=O)OC(C)C)cn(C3CC3)c12 (centres unmarked) [Example 3 (Mef), i-Propyl 1-cyclopropyl-6-fluoro-8-methoxy-1,4-dihydro-7-(4′-amino-3′,3′-dimethyl-piperidin-1-yl)-4-oxo-quinoline-3-carboxylate] to COc1c(N2CCC(NC(=O)OC(C)(C)C)C(C)(C)C2)c(F)cc2c(=O)c(C(=O)OCc3ccccc3)cn(C3CC3)c12 (centres unmarked) [Example 6 (Mef)], the “Difference in Zone diameter Z1 (mm)” value rises from 11 mm to 13 mm.

COc1c(N2CCC(NC(=O)[C@H](C)N)C(C)(C)C2)c(F)cc2c(=O)c(C(=O)O)cn(C3CC3)c12.Cl (some centres unmarked) [Example 8 (Mef), 1-Cyclopropyl-6-fluoro-8-methoxy-1,4-dihydro-7-(4′-(L)-alaninylamino-3′,3′-dimethylpiperidin-1-yl)-4-oxo-quinoline-3-carboxylic acid hydrochloride] and CN1CCN(c2cc3c(cc2F)c(=O)c(C(=O)O)cn3-c2cccc(F)c2)CC1 [Example 16 (Mef), 1-(3′-Fluorophenyl)-6-fluoro-1,4-dihydro-7-(4′-methylpiperazin-1′-yl)-4-oxo-quinoline-3-carboxylic acid] are the same in “Difference in Zone diameter Z1 (mm)” value: 10 mm for the first, 10 mm for the second.

First: O=C(O)c1cn(C2CC2)c2nc(N3CC4C(C3)C4NCc3ccccc3)c(F)cc2c1=O (centres unmarked) [Example 21 (Mef), 1-Cyclopropyl-6-fluoro-1,4-dihydro-7-{(1∝,5∝,6∝)-6-amino-N-benzyl-3-azabicyclo[3.1.0]hex-6-yl}-4-oxo-1,8-naphthyridine-3-carboxylic acid]
Second: CC1COc2c(N3CCC(O)C(CN)C3)c(F)cc3c(=O)c(C(=O)O)cn1c23 (centres unmarked) [Example 27 (Mef), 7H-Pyrido[1,2,3-de]-1,4-benzoxazine-9-fluoro-2,3-dihydro-3-methyl-10-(3′-aminomethyl-4′-hydroxypiperidin-1′-yl)-7-oxo-6-carboxylic acid]
The “Difference in Zone diameter Z1 (mm)” value of the first is higher: 17 mm for the first, 16 mm for the second.

First: CCCCOC(=O)c1cn(C2CC2)c2c(OC)c(N3CCC(N)C(C)(C)C3)c(F)cc2c1=O (centres unmarked) [Example 4 (Mef), n-Butyl 1-cyclopropyl-6-fluoro-8-methoxy-1,4-dihydro-7-(4′-amino-3′,3′-dimethyl-piperidin-1-yl)-4-oxo-quinoline-3-carboxylate]
Second: COc1c(N2CCC(NC(=O)[C@@H](NC(=O)OC(C)(C)C)C(C)C)C(C)(C)C2)c(F)cc2c(=O)c(C(=O)O)cn(C3CC3)c12 (stereo partly drawn) [Example 9 (Mef), 1-Cyclopropyl-6-fluoro-8-methoxy-1,4-dihydro-7-(3′,3′-dimethyl-4′-N-(t-butoxycarbonyl-L-valyl)-aminopiperidin-1-yl}-4-oxo-quinoline-3-carboxylic acid]
The “Difference in Zone diameter Z1 (mm)” value of the first is higher: 11 mm for the first, 5 mm for the second.

First: 1-Cyclopropyl-6-fluoro-8-methoxy-1,4-dihydro-7-{-4′-(t-butoxycarbonyl (L)-Ala-Ala)amino 3′,3′-dimethylpiperidin-1-yl}-4-oxo-quinoline-3-carboxylic acid [Example 34 (Mef)]
Second: CC1CCc2c(N3CC[C@@H](O)[C@H](C)C3)ccc3c(=O)c(C(=O)O)cn1c23 (mixture of isomers) [Example 41 (Mef), (RS)-(±)-6,7-dihydro-8-(trans-4′-hydroxy-3′-methylpiperidin-1-yl)-5-methyl-1-oxo-1H,5H-benzo[i,j]quinolizine-2-carboxylic acid]
The “Difference in Zone diameter Z1 (mm)” value of the first is lower: 8 mm for the first, 10 mm for the second.

First: Cc1c(F)c(N2CCC(N)CC2)cc2c1c(=O)c(C(=O)O)cn2-c1ccc(F)cc1F [Example 18 (Mef), 1-(2′,4′-Difluorophenyl)-6-fluoro-5-methyl-1,4-dihydro-7-(4′-aminopiperidin-1′-yl)-4-oxo-quinoline-3-carboxylic acid]
Second: CCOC(=O)c1cn(-c2ccc(F)cc2F)c2nc(N3CCC(N)C(C)(C)C3)c(F)c(C)c2c1=O (centres unmarked) [Example 38 (Mef), Ethyl 1-(2,4-difluorophenyl)-6-fluoro-5-methyl-1,4-dihydro-7-(4-amino-3,3-dimethylpiperidin-1-yl)-4-oxo-1,8-naphthyridine-3-carboxylate]
The “Difference in Zone diameter Z1 (mm)” value of the first is lower: 8 mm for the first, 10 mm for the second.

“(RS)-(±)-6,7-dihydro-8-(cis-4′-hydroxy-3′-methylpiperidin-1-yl)-5-methyl-1-oxo-1H,5H-benzo[i,j]quinolizine-2-carboxylic acid [Example 42 (Mef)]” and CCNC1CCN(c2c(F)cc3c(=O)c(C(=O)O)cn4c3c2CC[C@@H]4C)CC1(C)C (stereo partly drawn) [Example 30 (Mef), (S)-(−)-9-Fluoro-6,7-dihydro-8-(3′,3′-dimethyl-4′-ethylaminopiperidin-1-yl)-5-methyl-1-oxo-1H,5H-benzo[i,j]quinolizine-2-carboxylic acid] are the same in “Difference in Zone diameter Z1 (mm)” value: 8 mm for the first, 8 mm for the second.

Going from CCOC(=O)c1cn(-c2ccc(F)cc2F)c2nc(N3CCC(N)C(CC)C3)c(F)cc2c1=O (centres unmarked) [Example 36 (Mef), Ethyl 1-(2,4-difluorophenyl)-6-fluoro-1,4-dihydro-7-(4-amino-3-ethylpiperidin-1-yl)-4-oxo-1,8-naphthyridine-3-carboxylate] to CC1CN(c2c(F)c(N)c3c(=O)c(C(=O)O)cn(C4CC4)c3c2F)CCC1N (centres unmarked) [Example 13 (Mef), 5-Amino-1-cyclopropyl-6,8-difluoro-1,4-dihydro-7-(4′-amino-3′-methylpiperidin-1-yl)-4-oxo-quinoline-3-carboxylic acid], the “Difference in Zone diameter Z1 (mm)” value rises from 10 mm to 20 mm.

COc1c(N2CCC(NC3CC3)CC2)c(F)c(N)c2c(=O)c(C(=O)O)cn(C3CC3)c12 [Example 33 (Mef), 5-Amino-1-cyclopropyl-6-fluoro-8-methoxy-1,4-dihydro-7-(4′-cyclopropylaminopiperidin-1-yl)-4-oxo-quinoline-3-carboxylic acid] was tested, and the “Difference in Zone diameter Z1 (mm)” value was 10 mm.
